{"source": "paper PMC4052943", "about": "(BioMed Research International, 2014)", "key": {"[1]": {"test_system": "Salmonella typhimurium strains TA97a, TA98, TA100, and TA102", "procedure": "(§1) In the preincubation experiment, test compounds and mutagen, each having a volume of 0.1 mL of varying concentrations, were preincubated at 37°C for 30 min and then 0.1 mL of 1 × 10^7 CFU/mL density of the bacterial culture was added, followed by the addition of 2.5 mL of top agar at 45°C (containing 0.5% NaCl and 0.6% agar) supplemented with 0.5 mM histidine-biotin. […] The combined solutions were vortexed and poured onto minimal glucose plates (40% glucose solution and Vogel Bonner medium). The plates were incubated at 37°C for 48 h and the numbers of histidine-independent revertants colonies were scored.\n(§2) Survival of the bacteria was routinely monitored for each experiment. Parallel controls were run with compounds alone at all concentrations to test the possible toxicity. The concentrations of the test samples for investigating the antimutagenicity were 50, 100, 200, and 500 μM. […] All the test samples and mutagens were dissolved in DMSO (final conc., 0.01%). […] Plates were set up in triplicate for each concentration and the entire experiment was repeated three times. Inhibition of mutagenicity was expressed as percentage decrease of reverse mutation and calculated as (1) Percent inhibition=[(a−b)/(a−c)]×100, where a = number of histidine revertants induced by mutagen, b = number of histidine revertants induced by mutagen in the presence of test compound, and c = number of revertants induced in negative control."}, "[2]": {"test_system": "Salmonella typhimurium TA97a", "assay": "Ames antimutagenicity assay (preincubation)", "settings": "for inhibition at 50 µM / inhibition at 100 µM / inhibition at 250 µM / inhibition at 500 µM: Salmonella enterica, TYPHIMURIUM; for Number of His+ revertants colonies/plate: TA 97a", "procedure": "as §1, §2"}, "[3]": {"test_system": "Salmonella typhimurium strains TA97a, TA98, TA100, and TA102", "assay": "Ames test, statements over all tester strains", "settings": "50–500 μM", "procedure": "as §1, §2"}, "[4]": {"test_system": "Salmonella typhimurium TA102", "settings": "250 µM", "procedure": "as §1, §2"}, "[5]": {"test_system": "Salmonella typhimurium TA98", "settings": "250 µM", "procedure": "as §1, §2"}, "[6]": {"test_system": "Salmonella typhimurium TA97a", "settings": "250 µM", "procedure": "as §1, §2"}, "[7]": {"test_system": "Salmonella typhimurium TA98", "assay": "Ames antimutagenicity assay (preincubation)", "settings": "for inhibition at 50 µM / inhibition at 100 µM / inhibition at 250 µM / inhibition at 500 µM: Salmonella enterica, TYPHIMURIUM", "procedure": "as §1, §2"}, "[8]": {"test_system": "Salmonella typhimurium TA100", "settings": "250 µM", "procedure": "as §1, §2"}}, "note": "Read-outs that look alike come from different tables or passages of the source."}
{"compound": "O=c1oc2c(O)c(O)cc3c(=O)oc4c(O)c(O)cc1c4c23", "note": "[Ellagic acid, ellagic acid]", "values": [{"measurement": "mutagenic activity", "setting": "[1]", "value": "No mutagenic activity"}, {"measurement": "inhibition at 50 µM", "setting": "[2]; read-out: % inhibition of mutagenicity, TA 97a, 50 μM + 2AF, S9", "value": 12.5, "unit": "%"}, {"measurement": "inhibition at 50 µM", "setting": "[2]; read-out: % inhibition of mutagenicity, TA 97a, 50 μM + BP, S9", "value": 14.1, "unit": "%"}, {"measurement": "inhibition at 50 µM", "setting": "[2]; read-out: % inhibition of mutagenicity, TA 97a, 50 μM + MMS, no S9", "value": 9, "unit": "%"}, {"measurement": "inhibition at 50 µM", "setting": "[2]; read-out: % inhibition of mutagenicity, TA 97a, 50 μM + NaN3, no S9", "value": 21.1, "unit": "%"}, {"measurement": "inhibition at 100 µM", "setting": "[2]; read-out: % inhibition of mutagenicity, TA 97a, 100 μM + 2AF, S9", "value": 22.6, "unit": "%"}, {"measurement": "inhibition at 100 µM", "setting": "[2]; read-out: % inhibition of mutagenicity, TA 97a, 100 μM + BP, S9", "value": 36, "unit": "%"}, {"measurement": "inhibition at 100 µM", "setting": "[2]; read-out: % inhibition of mutagenicity, TA 97a, 100 μM + MMS, no S9", "value": 25, "unit": "%"}, {"measurement": "inhibition at 100 µM", "setting": "[2]; read-out: % inhibition of mutagenicity, TA 97a, 100 μM + NaN3, no S9", "value": 39.4, "unit": "%"}, {"measurement": "inhibition at 250 µM", "setting": "[2]; read-out: % inhibition of mutagenicity, TA 97a, 250 μM + BP, S9", "value": 71.8, "unit": "%"}, {"measurement": "inhibition at 250 µM", "setting": "[2]; read-out: % inhibition of mutagenicity, TA 97a, 250 μM + MMS, no S9", "value": 42.2, "unit": "%"}, {"measurement": "inhibition at 250 µM", "setting": "[2]; read-out: % inhibition of mutagenicity, TA 97a, 250 μM + NaN3, no S9", "value": 53.6, "unit": "%"}, {"measurement": "inhibition at 500 µM", "setting": "[2]; read-out: % inhibition of mutagenicity, TA 97a, 500 μM + 2AF, S9", "value": 81.7, "unit": "%"}, {"measurement": "inhibition at 500 µM", "setting": "[2]; read-out: % inhibition of mutagenicity, TA 97a, 500 μM + BP, S9", "value": 83.5, "unit": "%"}, {"measurement": "inhibition at 500 µM", "setting": "[2]; read-out: % inhibition of mutagenicity, TA 97a, 500 μM + MMS, no S9", "value": 66.5, "unit": "%"}, {"measurement": "inhibition at 500 µM", "setting": "[2]; read-out: % inhibition of mutagenicity, TA 97a, 500 μM + NaN3, no S9", "value": 72.1, "unit": "%"}, {"measurement": "Number of His+ revertants colonies/plate", "setting": "[2]; 50 μM + 2AF, S9", "value": "312.3 ± 20.5", "unit": "colonies/plate"}, {"measurement": "Number of His+ revertants colonies/plate", "setting": "[2]; 50 μM + BP, S9", "value": "652.7 ± 35.3", "unit": "colonies/plate"}, {"measurement": "Number of His+ revertants colonies/plate", "setting": "[2]; 50 μM + MMS, no S9", "value": "426.3 ± 11.6", "unit": "colonies/plate"}, {"measurement": "Number of His+ revertants colonies/plate", "setting": "[2]; 50 μM + NaN3, no S9", "value": "242.0 ± 11.8", "unit": "colonies/plate"}, {"measurement": "Number of His+ revertants colonies/plate", "setting": "[2]; 100 μM + 2AF, S9", "value": "296.7 ± 13.4", "unit": "colonies/plate"}, {"measurement": "Number of His+ revertants colonies/plate", "setting": "[2]; 100 μM + BP, S9", "value": "529.0 ± 28.6", "unit": "colonies/plate"}, {"measurement": "Number of His+ revertants colonies/plate", "setting": "[2]; 100 μM + MMS, no S9", "value": "378.0 ± 10.8", "unit": "colonies/plate"}, {"measurement": "Number of His+ revertants colonies/plate", "setting": "[2]; 100 μM + NaN3, no S9", "value": "219.3 ± 7.1", "unit": "colonies/plate"}, {"measurement": "Number of His+ revertants colonies/plate", "setting": "[2]; 250 μM + BP, S9", "value": "333.3 ± 22.2", "unit": "colonies/plate"}, {"measurement": "Number of His+ revertants colonies/plate", "setting": "[2]; 250 μM + MMS, no S9", "value": "321.3 ± 10.8", "unit": "colonies/plate"}, {"measurement": "Number of His+ revertants colonies/plate", "setting": "[2]; 250 μM + NaN3, no S9", "value": "196.7 ± 8.2", "unit": "colonies/plate"}, {"measurement": "Number of His+ revertants colonies/plate", "setting": "[2]; 500 μM + 2AF, S9", "value": "212.0 ± 10.4", "unit": "colonies/plate"}, {"measurement": "Number of His+ revertants colonies/plate", "setting": "[2]; 500 μM + BP, S9", "value": "275.3 ± 17.5", "unit": "colonies/plate"}, {"measurement": "Number of His+ revertants colonies/plate", "setting": "[2]; 500 μM + MMS, no S9", "value": "239.7 ± 10.8", "unit": "colonies/plate"}, {"measurement": "Number of His+ revertants colonies/plate", "setting": "[2]; 500 μM + NaN3, no S9", "value": "168.0 ± 7.0", "unit": "colonies/plate"}, {"measurement": "toxicity to Salmonella typhimurium strains", "setting": "[3]; absence of S9", "value": "No toxicity"}, {"measurement": "maximum inhibition of mutagenicity", "setting": "[3]; against sodium azide, MMS, BP, 2AF", "value": "up to 90%"}, {"measurement": "inhibition", "setting": "[4]", "value": 74.1, "unit": "%"}, {"measurement": "inhibition", "setting": "[5]", "value": 56.3, "unit": "%"}, {"measurement": "inhibition", "setting": "[6]", "value": 44.9, "unit": "%"}, {"measurement": "inhibition at 50 µM", "setting": "[7]; read-out: % inhibition of mutagenicity, TA 98, 50 μM + 2AF, S9", "value": 19.4, "unit": "%"}, {"measurement": "inhibition at 50 µM", "setting": "[7]; read-out: % inhibition of mutagenicity, TA 98, 50 μM + BP, S9", "value": 22.2, "unit": "%"}, {"measurement": "inhibition at 50 µM", "setting": "[7]; read-out: % inhibition of mutagenicity, TA 98, 50 μM + MMS, no S9", "value": 22.2, "unit": "%"}, {"measurement": "inhibition at 100 µM", "setting": "[7]; read-out: % inhibition of mutagenicity, TA 98, 100 μM + 2AF, S9", "value": 39.6, "unit": "%"}, {"measurement": "inhibition at 100 µM", "setting": "[7]; read-out: % inhibition of mutagenicity, TA 98, 100 μM + BP, S9", "value": 48.2, "unit": "%"}, {"measurement": "inhibition at 100 µM", "setting": "[7]; read-out: % inhibition of mutagenicity, TA 98, 100 μM + MMS, no S9", "value": 34, "unit": "%"}, {"measurement": "inhibition at 100 µM", "setting": "[7]; read-out: % inhibition of mutagenicity, TA 98, 100 μM + NaN3, no S9", "value": 27.9, "unit": "%"}, {"measurement": "inhibition at 250 µM", "setting": "[7]; read-out: % inhibition of mutagenicity, TA 98, 250 μM + BP, S9", "value": 62.3, "unit": "%"}, {"measurement": "inhibition at 250 µM", "setting": "[7]; read-out: % inhibition of mutagenicity, TA 98, 250 μM + MMS, no S9", "value": 50, "unit": "%"}, {"measurement": "inhibition at 250 µM", "setting": "[7]; read-out: % inhibition of mutagenicity, TA 98, 250 μM + NaN3, no S9", "value": 50, "unit": "%"}, {"measurement": "inhibition at 500 µM", "setting": "[7]; read-out: % inhibition of mutagenicity, TA 98, 500 μM + 2AF, S9", "value": 80, "unit": "%"}, {"measurement": "inhibition at 500 µM", "setting": "[7]; read-out: % inhibition of mutagenicity, TA 98, 500 μM + BP, S9", "value": 78.6, "unit": "%"}, {"measurement": "inhibition at 500 µM", "setting": "[7]; read-out: % inhibition of mutagenicity, TA 98, 500 μM + MMS, no S9", "value": 69, "unit": "%"}, {"measurement": "inhibition at 500 µM", "setting": "[7]; read-out: % inhibition of mutagenicity, TA 98, 500 μM + NaN3, no S9", "value": 64.2, "unit": "%"}, {"measurement": "Number of His+ revertants colonies/plate", "setting": "[7]; TA 98, 50 μM + 2AF, S9", "value": "214.3 ± 13.9", "unit": "colonies/plate"}, {"measurement": "Number of His+ revertants colonies/plate", "setting": "[7]; TA 98, 50 μM + BP, S9", "value": "140.0 ± 12.2", "unit": "colonies/plate"}, {"measurement": "Number of His+ revertants colonies/plate", "setting": "[7]; TA 98, 50 μM + MMS, no S9", "value": "53.0 ± 1.2", "unit": "colonies/plate"}, {"measurement": "Number of His+ revertants colonies/plate", "setting": "[7]; TA 98, 100 μM + 2AF, S9", "value": "171.0 ± 9.5", "unit": "colonies/plate"}, {"measurement": "Number of His+ revertants colonies/plate", "setting": "[7]; TA 98, 100 μM + BP, S9", "value": "107.3 ± 7.9", "unit": "colonies/plate"}, {"measurement": "Number of His+ revertants colonies/plate", "setting": "[7]; TA 98, 100 μM + MMS, no S9", "value": "48.3 ± 2.0", "unit": "colonies/plate"}, {"measurement": "Number of His+ revertants colonies/plate", "setting": "[7]; TA 98, 100 μM + NaN3, no S9", "value": "48.3 ± 2.7", "unit": "colonies/plate"}, {"measurement": "Number of His+ revertants colonies/plate", "setting": "[7]; TA 98, 250 μM + BP, S9", "value": "86.3 ± 5.8", "unit": "colonies/plate"}, {"measurement": "Number of His+ revertants colonies/plate", "setting": "[7]; TA 98, 250 μM + MMS, no S9", "value": "44.0 ± 2.1", "unit": "colonies/plate"}, {"measurement": "Number of His+ revertants colonies/plate", "setting": "[7]; TA 98, 250 μM + NaN3, no S9", "value": "43.3 ± 2.6", "unit": "colonies/plate"}, {"measurement": "Number of His+ revertants colonies/plate", "setting": "[7]; TA 98, 500 μM + 2AF, S9", "value": "76.3 ± 6.1", "unit": "colonies/plate"}, {"measurement": "Number of His+ revertants colonies/plate", "setting": "[7]; TA 98, 500 μM + BP, S9", "value": "60.7 ± 10.5", "unit": "colonies/plate"}, {"measurement": "Number of His+ revertants colonies/plate", "setting": "[7]; TA 98, 500 μM + MMS, no S9", "value": "37.3 ± 2.6", "unit": "colonies/plate"}, {"measurement": "Number of His+ revertants colonies/plate", "setting": "[7]; TA 98, 500 μM + NaN3, no S9", "value": "38.0 ± 1.7", "unit": "colonies/plate"}, {"measurement": "inhibition", "setting": "[8]", "value": 67.7, "unit": "%"}]}
